Experimental data as given in patent US20250057951A1, “DISCERNIBLE CELL SURFACE PROTEIN VARIANTS OF CD117 FOR USE IN CELL THERAPY” (UNIVERSITÄT BASEL, priority 2021, published 2025).

Legend:
antibody Refmab #1 [1] = assay: Octet screen: binding of CD117 D1-2-3 variants to captured Refmab #1; details: nm shift at end of association, top analyte concentration (500 nM)
Procedure, shortened: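 Refmab #1 captured on anti-human Fc biosensors; human CD117 D1-2-3 wt or variants flowed as analyte at 500, 50 and 5 nM, 25° C., 300 s association/900 s dissociation, buffer-referenced. Binding level at top concentration, end of association, expressed as percent of wild type; 1:1 fits where possible.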

Refmab #1 = Refmab #1 titration on engineered TF-1 cells (flow cytometry); assay type: binding; details: 5-0.00015 μg/mL antibody; 4° C.
Experimental: Binding of Refmab #1 was assessed in a flow cytometry assay. TF-1 cells were seeded at a cell concentration of 1,000,000 cells/ml in FACS Buffer (PBS+2% FCS+1 mM EDTA). After a Fc blocking using 1:20 diluted TruStain (BioLegend, #422302) in FACS buffer for 15 minutes at 4° C., cells were washed twice with FACS buffer. Subsequently, a SR-1 titration was added to the cells using 5-0.00015 μg/mL antibody for 30 minutes at 4° C. on a plate shaker. Cells were washed twice with FACS buffer and a secondary labelled antibody (IgG (H+L) Cross-Adsorbed Goat anti-Human, Alexa Fluor® 488, Invitrogen, A11013) was added to the cells for 30 minutes at 4° C. on a plate shaker. Cells were washed twice with FACS buffer, before adding 1:100 diluted solution of 7AAD staining (cell viability) in FACS buffer for a couple of minutes and analyzing the cells using the Novocyte Quanteon (Agilent).

TF-1 cells [2] = assay: SCF-dependent proliferation, SCF titration on TF-1 cells with CD117 variants (CellTiter-Glo); assay type: cell-based, human; details: titration of SCF; 3 days; TF-1 cells with the CD117 variant
Procedure, shortened: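 TF-1 cells expressing wildtype or variant CD117 seeded at 150 000 cells/ml in RPMI+GlutaMax+10% FCS and titrated with SCF. Viability read by CellTiter-Glo 2.0 luminescence after 3 days; EC50 determined from two experiments, each in triplicate.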

TF-1 cells [3] = assay: SCF-dependent phosphorylation of CD117 variants in TF-1 cells (Tyr719 ELISA); assay type: cell-based, human; details: 1-20 ng/ml SCF for 5 minutes
Experimental: TF-1 cells (wild type, knock out, and variants E73K, D121K and S123K of CD117) were seeded at a concentration of 1 million cells/ml in 2 ml of Medium (RPMI1640 supplemented with GlutaMAX+10% heat inactivated FBS) in a 6-well plate. Cells were treated with 1-20 ng/ml recombinant human SCF (1 mg/ml PeproGMP Recombinant Human SCF) for 5 minutes, before cell collection. Cells were washed with ice-cold PBS, before resuspending cells in 500 μL Lysis Buffer (Lysis buffer from Signaling containing Protease Inhibitor and Phosphatase Inhibitor). Cells were flash frozen in liquid nitrogen and thawed at 37° C. twice, before freezing them at −80° C. until further usage. Undiluted samples were thawed and processed according to the manufacturers protocol for the PathScan Phospho-c-Kit (Tyr719) Sandwich ELISA Kit (Cell Signaling). Absorbance (OD_450 nm) was assessed using the Envision (Perkin Elmer).

TF-1 cells [4] = assay: SCF-dependent proliferation of TF-1 cells with CD117 knock-in (CellTiter-Glo); assay type: cell-based, human; details: 100 ng/ml SCF; 3 days; knock-in TF-1 cells
Experimental: (§1) SCF-dependent proliferation is another function of CD117. SCF-dependent proliferation was measured as follows: TF-1 cells were seeded at a cell concentration of 150 000 cells/ml in sterile, white cell culture treated plates in RPMI Media+10% FCS. Cells were treated with 100 ng/ml of SCF and a titration of various CD117 antibodies or an isotype control antibody at different concentrations. After 3 days of incubation a CellTiter-Glo 2.0 assay (Promega) was performed and luminescence was read in a luminometer (e.g. Envision or Phera Star plate readers).
(§2) CD117 wild-type TF-1 cells were compared to TF1 cells with a E73K knock in. […] Both KI1 and KI2 were obtained upon sorting the edited TF1 cells using the SONY MA900, removing any wild-type and knock out cells from the final subsets, thus yielding high purity of knock in.

CD117+ myeloid cells = assay: Depletion experiment in NSG mice with E73K gene-edited HSPCs; assay type: in vivo; details: in the presence of isotype control antibody
Experimental: In another experiment, NSG mice (Jackson Laboratories) were sub-lethally irradiated one day before injection with 1 Mio gene-edited HSPCs carrying a E73K variant of CD117. 8, 10, 12 and 14 days after cell injection mice received 25 mg/kg antibody Refmab #1-Bert or 25 mg/kg isotope control antibody i.v. per dose. 16 weeks later the mice were euthanized, and blood, spleen and bone marrow were analyzed by FACS.
CD117+ myeloid cells were identified by FACS as live/hCD45+/CD33+/CD117+. […] Clone 104D2 was used as an expression control. Cells were classified as not edited (104D2+ and SR-1+) or E73K edited (104D2+ but SR-1−) based on double staining with anti-CD117 clone SR-1 and anti-CD117 clone 104D2.

antibody Refmab #1 [5] = assay: Octet titration, steady state KD of CD117 D1-2-3 variants to Refmab #1; assay type: binding
Experimental: To further characterize binding of Refmab #1 to CD117 D1-2-3 variants E73K, E73L, E73R, E73Y, D121H, D121K, S123K and S123F, the analytes were titrated at 7 different concentrations (from 2000 nM to 5 nM). Antibody Refmab #1 was captured by AHC biosensors for 300 s at 0.5 to 1 μg/mL. Association and dissociation to Refmab #1 was extended to 600 s and 1000 s, respectively. Steady state analysis was performed.

variants of CD117 = assay: Blocking of SCF-induced CD117 phosphorylation (Tyr719 ELISA), TF-1 cells with CD117 variants; assay type: cell-based, human; details: 0.5 ug/mL antibody or 500 nM avapritinib; 100 ng/ml SCF 5 minutes
Experimental: (§3) SCF-dependent phosphorylation is another function of CD117. SCF-dependent phosphorylation was measured using TF-1 cells expressing CD117 (as shown in previous experiments). TF-1 cells were seeded at a concentration of 1 million cells/ml in 1 ml of Medium (RPMI1640 supplemented with GlutaMAX+10% heat inactivated FBS) in a 6-well plate. Cells were treated with 0.5 ug/mL antibody or 500 nM avapratinib. Cells were then treated with 100 ng/ml recombinant human SCF (1 mg/ml PeproGMP® Recombinant Human SCF) for 5 minutes, before cell collection. Cells were washed with ice-cold PBS, before resuspending cells in 250 μL Lysis Buffer (Lysis buffer from Signaling containing Protease Inhibitor and Phosphatase Inhibitor). Cells were flash frozen in liquid nitrogen and thawed at 37° C. twice, before freezing them at −80° C. until further usage. Undiluted samples were thawed and processed according to the manufacturers protocol for the PathScan® Phospho-c-Kit (Tyr719) Sandwich ELISA Kit (Cell Signaling). Absorbance (OD_450 nm) was assessed using the Envision (Perkin Elmer).
(§4) TF-1 cells (wild type, and variants E73K, E73Y, D121K, S123F and S123K of CD117) were seeded at a concentration of 1 million cells/mL in 2 ml of Medium (RPMI1640 supplemented with GlutaMAX+10% heat inactivated FBS) in a 6-well plate. Cells were pre-treated with 0.5 μg/ml of antibodies Refmab #1-Ernie or Refmab #1-Bert for 30 minutes, before adding 100 ng/ml recombinant human SCF (1 mg/mL PeproGMP® Recombinant Human SCF) for 5 minutes. Cells were collected, washed once with ice-cold PBS and resuspended in 500 μL Lysis Buffer (Lysis buffer from Signaling containing Protease Inhibitor and Phosphatase Inhibitor). Cells were then flash frozen in liquid nitrogen and thawed at 37° C. twice, before freezing them at −80° C. until further usage. Undiluted samples were thawed and processed according to the manufacturers protocol for the PathScan Phospho-c-Kit (Tyr719) Sandwich ELISA Kit (Cell Signaling) or the Human c-Kit (CD117) ELISA Kit (Abcam). Absorbance (OD_450 nm) was assessed using the Envision (Perkin Elmer).

HSPC's = assay: Inhibition of SCF-dependent proliferation, HSPCs; assay type: cell-based, human
Experimental: For human CD34+ HSCs (different donors) cells are seeded in X-Vivo 20 medium with 100 ng/ml SCF, 50 ng/ml TPO and 50 ng/ml FLT-3 Ligand in sterile white cell culture treated plates at a cell density of 30 000 cells/ml. HSCs are then treated with various CD117 antibodies or an isotype control antibody at different concentrations and plates are incubated for 5 days. After 5 days a CellTiter-Glo 2.0 assay (Promega) is performed and luminescence is read in a luminometer (e.g. Envision or Phera Star plate readers).

[6] = tested on: TF-1 cells with knock-ins of CD117 variants; assay: Inhibition of SCF-dependent proliferation, TF-1 cells with CD117 variant knock-in; assay type: cell-based, human; details: 100 ng/ml SCF; increasing concentrations; 3 days; E73K; all variants tested; listed as RefMab #1
Experimental: as §1, §2
(§5) Next, proliferation of the variants was tested with increasing concentrations of RefMab #1 at a constant concentration of SCF (100 ng/ml). TF-1 cells were seeded at a cell concentration of 150 000 cells/ml in sterile, white cell culture treated plates with transparent bottom in RPMI+GlutaMax+10% FCS and a fix concentration of 100 ng/ml SCF in the media, Cells were treated with different concentrations of RefMab #1. After 3 days of incubation a CellTiter-Glo 2,0 assay (Promega) was performed, luminescence was read in a luminometer (Envision plate reader).

wild type TF-1 cells = assay: Inhibition of SCF-dependent proliferation, wild type TF-1 cells; assay type: cell-based, human; details: for effect on SCF-dependent proliferation of wild type TF-1 cells: 100 ng/ml SCF, increasing concentrations, 3 days
Experimental: as §1, §5

CD117 = assay: Blocking of SCF-induced CD117 phosphorylation (Tyr719 ELISA), wild type TF-1 cells; assay type: cell-based, human; details: 0.5 ug/mL antibody or 500 nM avapritinib; 100 ng/ml SCF 5 minutes
Experimental: as §3, §4

binding to Refmab #1 compared to wild type (antibody Refmab #1 [1])	Kd (antibody Refmab #1 [5]; 7 concentrations 2000-5 nM, steady state, two individual experiments) [nM]	change of KD compared to wild type CD117 (antibody Refmab #1 [5]; KD variant vs wild type) [fold]	Molecule	Binding of Refmab #1 to TF-1 cells expressing the CD117 variant (Refmab #1)	EC50 Experiment #1 (TF-1 cells [2]) [µg/mL]	EC50 Experiment #2 (TF-1 cells [2]) [µg/mL]	SCF-dependent phosphorylation at position Tyr719 of CD117 (TF-1 cells [3])	SCF-dependent proliferation (TF-1 cells [4])	engraftment of edited CD34+ human cells in immune-deficient mice (CD117+ myeloid cells)	blocking of SCF-induced phosphorylation, E73K variant (variants of CD117)	IC50 in SCF-dependent proliferation assay (HSPC's) [µg/mL]	effect on SCF-dependent proliferation of TF-1 cells with CD117 variants [6]	effect on SCF-dependent proliferation of wild type TF-1 cells (wild type TF-1 cells)	effect on SCF-dependent proliferation of wild type TF-1 cells (wild type TF-1 cells; listed as RefMab #1)	IC50 in SCF-dependent proliferation assay (wild type TF-1 cells; TF-1 cells) [µg/mL]	blocking of SCF-induced phosphorylation, wild type cells (CD117)
strong decrease in binding	1200	1200	E73K: variant of human CD117 (SEQ ID NO: 1) with substitution E73K	completely abolished	0.00373	0.00342	showed a SCF-dependent phosphorylation	strongly proliferated	engraft essentially as well as unedited cells	–	–	–	–	–	–	–
–	–	–	Refmab #1: anti-CD117 antibody, VH SEQ ID 15, VL SEQ ID 16, human IgG1 Fc silent (AEASS); also tested as Fab (antibody, V domains shown, human IgG1 Fc silent (AEASS); Refmab #1 VH; Refmab #1 VL, also tested as Fab) VH: QVQLQQPGAELVKPGASVKMSCKASGYTFTSYNMHWVKQTPGQGLEWIGVIYSGNGDTSYNQKFKGKATLTADKSSSTAYMQINSLTSEDSAVYYCARERDTRFGNWGQGTLVTVSA VL: NIVLTQSPASLAVSLGLRATISCRASESVDIYGNSFMHWYQQKPGQPPKLLIYLASNLESGVPARFSGSGSRTDFTLTIDPVEADDAATYYCQQNNEDPYTFGGGTKLEIK	–	–	–	–	–	–	unaffected	0.0623	not affected	decrease in proliferation	pronounced effect	0.2760	can be blocked
